Experimental data published in ChEMBL document CHEMBL3885861, “Open TG-GATES”.

Species: Rattus norvegicus
Test: Open TG-GATES - Regimen: Single
Type: toxicity, organism-based, Sprague-Dawley
Set-up: regimen Single, gender Male, age 6 weeks
Conditions: in vivo, po, route gavage; for APTT / Bas / Eos / Fbg / Hb / Ht / Lym / MCHC / MCV / Mono / Neu / PT / Plat / RBC / Ret / WBC: tissue Blood; for KIDNEY_L / KIDNEY_R / KIDNEY_TOTAL: tissue Kidney; for LIVER: tissue Liver
[1] = 100 mg/kg, 3 h, tissue Plasma, dose level Low
[2] = 100 mg/kg, 6 h, tissue Plasma, dose level Low
[3] = 100 mg/kg, 9 h, tissue Plasma, dose level Low
[4] = 100 mg/kg, 24 h, dose level Low
[5] = 100 mg/kg, 24 h, tissue Plasma, dose level Low
[6] = 300 mg/kg, 3 h, dose level Middle

With `CN(C)C(=N)N=C(N)N` [METFORMIN] the APTT (100 mg/kg, 3 h, dose level Low) was 16 s, the Bas (100 mg/kg, 3 h, dose level Low) was 0% and the Eos (100 mg/kg, 3 h, dose level Low) was 0.8%. For the same molecule, the Fbg (100 mg/kg, 3 h, dose level Low) was 241.8 mg/dL, the Hb (100 mg/kg, 3 h, dose level Low) was 13.2 g/dL and the Ht (100 mg/kg, 3 h, dose level Low) was 39.9%. For the same molecule, the Lym (100 mg/kg, 3 h, dose level Low) was 77.2%, the MCHC (100 mg/kg, 3 h, dose level Low) was 33.1% and the MCV (100 mg/kg, 3 h, dose level Low) was 65.8 fL. For the same molecule, the Mono (100 mg/kg, 3 h, dose level Low) was 3.4%, the Neu (100 mg/kg, 3 h, dose level Low) was 18.2% and the PT (100 mg/kg, 3 h, dose level Low) was 12.3 s. It also gave a Plat (100 mg/kg, 3 h, dose level Low) of 118.9 x10_4/uL, an RBC (100 mg/kg, 3 h, dose level Low) of 607.2 x10_4/ul and a Ret (100 mg/kg, 3 h, dose level Low) of 10%. The WBC (100 mg/kg, 3 h, dose level Low) was 81.3 x10_2/uL, the KIDNEY_L (100 mg/kg, 3 h, dose level Low) was 0.9 g and the KIDNEY_R (100 mg/kg, 3 h, dose level Low) was 0.8 g. It also gave a KIDNEY_TOTAL (100 mg/kg, 3 h, dose level Low) of 1.7 g, an LIVER (100 mg/kg, 3 h, dose level Low) of 8.3 g and an ALP [1] of 1250.2 IU/L. It also gave an AST [1] of 72.4 IU/L, a BUN [1] of 8.4 mg/dL and a CRE [1] of 0.2 mg/dL. The Ca [1] was 11.2 mg/dL, the Cl [1] was 105.2 meq/L and the DBIL [1] was 0.008 mg/dL. The GLC [1] was 168.4 mg/dL, the IP [1] was 8.7 mg/dL and the K [1] was 4.3 meq/L. It also gave an LDH [1] of 62.6 IU/L, a Na [1] of 139.4 meq/L and a PL [1] of 135.8 mg/dL. For the same molecule, the RALB [1] was 2.5 g/dL, the TBIL [1] was 0.042 mg/dL and the TC [1] was 83.6 mg/dL. The TG [1] was 54.6 mg/dL, the TP [1] was 5.1 g/dL and the gamma-GTP [1] was 1.2 IU/L. For the same molecule, the TERMINAL_BW (100 mg/kg, 6 h, dose level Low) was 200.6 g, the APTT (100 mg/kg, 6 h, dose level Low) was 16 s and the Bas (100 mg/kg, 6 h, dose level Low) was 0%. For the same molecule, the Eos (100 mg/kg, 6 h, dose level Low) was 0.8%, the Fbg (100 mg/kg, 6 h, dose level Low) was 249 mg/dL and the Hb (100 mg/kg, 6 h, dose level Low) was 12.8 g/dL. The Ht (100 mg/kg, 6 h, dose level Low) was 38.8%, the Lym (100 mg/kg, 6 h, dose level Low) was 75.2% and the MCHC (100 mg/kg, 6 h, dose level Low) was 33%. The MCV (100 mg/kg, 6 h, dose level Low) was 63.6 fL, the Mono (100 mg/kg, 6 h, dose level Low) was 3.4% and the Neu (100 mg/kg, 6 h, dose level Low) was 19.6%. For the same molecule, the PT (100 mg/kg, 6 h, dose level Low) was 12.4 s, the Plat (100 mg/kg, 6 h, dose level Low) was 125.3 x10_4/uL and the RBC (100 mg/kg, 6 h, dose level Low) was 610.4 x10_4/ul. The Ret (100 mg/kg, 6 h, dose level Low) was 9.8%, the WBC (100 mg/kg, 6 h, dose level Low) was 95.4 x10_2/uL and the KIDNEY_L (100 mg/kg, 6 h, dose level Low) was 0.9 g. The KIDNEY_R (100 mg/kg, 6 h, dose level Low) was 0.9 g, the KIDNEY_TOTAL (100 mg/kg, 6 h, dose level Low) was 1.7 g and the LIVER (100 mg/kg, 6 h, dose level Low) was 7.8 g. For the same molecule, the ALT [2] was 55.4 IU/L, the AST [2] was 84.6 IU/L and the BUN [2] was 8.2 mg/dL. It also gave a CRE [2] of 0.1 mg/dL, a Ca [2] of 10.8 mg/dL and a Cl [2] of 105.4 meq/L. The DBIL [2] was 0.008 mg/dL, the GLC [2] was 168.4 mg/dL and the IP [2] was 10.2 mg/dL. The K [2] was 4.2 meq/L, the LDH [2] was 71.8 IU/L and the Na [2] was 139.2 meq/L. For the same molecule, the PL [2] was 124 mg/dL, the RALB [2] was 2.4 g/dL and the TBIL [2] was 0.046 mg/dL. For the same molecule, the TG [2] was 26.8 mg/dL, the TP [2] was 5 g/dL and the gamma-GTP [2] was 1.2 IU/L. For the same molecule, the TERMINAL_BW (100 mg/kg, 9 h, dose level Low) was 201.1 g, the APTT (100 mg/kg, 9 h, dose level Low) was 16.1 s and the Bas (100 mg/kg, 9 h, dose level Low) was 0%. The Eos (100 mg/kg, 9 h, dose level Low) was 1%, the Fbg (100 mg/kg, 9 h, dose level Low) was 233.4 mg/dL and the Hb (100 mg/kg, 9 h, dose level Low) was 13 g/dL. It also gave a Ht (100 mg/kg, 9 h, dose level Low) of 38.8%, a Lym (100 mg/kg, 9 h, dose level Low) of 75.2% and an MCHC (100 mg/kg, 9 h, dose level Low) of 33.4%. It also gave an MCV (100 mg/kg, 9 h, dose level Low) of 64 fL, a Mono (100 mg/kg, 9 h, dose level Low) of 2.8% and a Neu (100 mg/kg, 9 h, dose level Low) of 20.4%. The PT (100 mg/kg, 9 h, dose level Low) was 12.6 s, the Plat (100 mg/kg, 9 h, dose level Low) was 114.4 x10_4/uL and the RBC (100 mg/kg, 9 h, dose level Low) was 607.4 x10_4/ul. For the same molecule, the Ret (100 mg/kg, 9 h, dose level Low) was 9%, the WBC (100 mg/kg, 9 h, dose level Low) was 79.5 x10_2/uL and the KIDNEY_L (100 mg/kg, 9 h, dose level Low) was 0.9 g. For the same molecule, the KIDNEY_R (100 mg/kg, 9 h, dose level Low) was 0.9 g, the KIDNEY_TOTAL (100 mg/kg, 9 h, dose level Low) was 1.8 g and the LIVER (100 mg/kg, 9 h, dose level Low) was 7.2 g. For the same molecule, the ALP [3] was 1288.4 IU/L, the ALT [3] was 46.6 IU/L and the AST [3] was 75 IU/L. The BUN [3] was 9.8 mg/dL, the CRE [3] was 0.1 mg/dL and the Ca [3] was 10.7 mg/dL. For the same molecule, the Cl [3] was 105.4 meq/L, the DBIL [3] was 0.01 mg/dL and the GLC [3] was 166.4 mg/dL. It also gave an IP [3] of 10.2 mg/dL, a K [3] of 4.2 meq/L and an LDH [3] of 49 IU/L. The Na [3] was 140 meq/L, the PL [3] was 118.4 mg/dL and the RALB [3] was 2.5 g/dL. For the same molecule, the TBIL [3] was 0.044 mg/dL, the TG [3] was 30 mg/dL and the TP [3] was 5.1 g/dL. It also gave a gamma-GTP [3] of 1 IU/L, a TERMINAL_BW [4] of 208.9 g and an APTT [4] of 16.6 s. The Bas [4] was 0%, the Eos [4] was 1% and the Fbg [4] was 242.6 mg/dL. It also gave a Hb [4] of 13 g/dL, a Ht [4] of 38.6% and a Lym [4] of 75%. The MCHC [4] was 33.6%, the MCV [4] was 64.8 fL and the Mono [4] was 3.6%. It also gave a Neu [4] of 19.8%, a PT [4] of 12.4 s and a Plat [4] of 109.9 x10_4/uL. It also gave an RBC [4] of 596 x10_4/ul, a Ret [4] of 8.8% and a WBC [4] of 95.2 x10_2/uL. It also gave a KIDNEY_L [4] of 0.9 g, a KIDNEY_R [4] of 0.9 g and a KIDNEY_TOTAL [4] of 1.8 g. It also gave an LIVER [4] of 10.1 g, an ALP [5] of 1691 IU/L and an ALT [5] of 51.6 IU/L. For the same molecule, the AST [5] was 80.8 IU/L, the BUN [5] was 14.6 mg/dL and the CRE [5] was 0.2 mg/dL. The Ca [5] was 11.3 mg/dL, the Cl [5] was 105.2 meq/L and the DBIL [5] was 0.016 mg/dL. It also gave a GLC [5] of 173.6 mg/dL, an IP [5] of 8.5 mg/dL and a K [5] of 3.9 meq/L. The LDH [5] was 81 IU/L, the Na [5] was 142.6 meq/L and the PL [5] was 140 mg/dL. For the same molecule, the RALB [5] was 2.6 g/dL, the TBIL [5] was 0.034 mg/dL and the TG [5] was 99 mg/dL. The TP [5] was 5.5 g/dL, the gamma-GTP [5] was 1.2 IU/L and the TERMINAL_BW [6] was 201.8 g. The APTT [6] was 15.4 s.
